PMC3908613 (Bioscience Reports, 2014)
pIC50: −log10 of the molar value.

What was measured:
[1] = target: T1, GST-Lok (Homo sapiens, UniProt O94804); assay: Kinase assay for recombinant Lok; assay type: biochemical; conditions: 25 μM ATP, 100 μM AXLTIDE substrate
T1 construct: GST; purchased DSTT
Method: The kinase reaction for Lok and Slk was supplemented with 12.5 mM sodium glycerophosphate and 0.25 mM sodium orthovanadate. The reactions were incubated for 15–20 min at 30°C then terminated and analysed as described previously [14].

[2] = test system: NIH3T3 cells; assay: Immunoblot of PKB phosphorylation in EGF-stimulated NIH3T3 cells; assay type: cell-based; conditions: EGF 100 ng/ml, 4 μM D1870
Method: BMDC (1.5×10^6 cells) were incubated in 6-well plates in RPMI supplemented with 0.3% FCS for 5 h at 37°C. […] NIH3T3 cells (2×10^4) were plated in 6-well plates for 48 h at 37°C. The cells were deprived of serum for 8 h in DMEM supplemented with 2 mg/ml BSA (Sigma) and then stimulated with 100 ng/ml EGF (epidermal growth factor; Peprotech) for 5 min at 37°C.
Cells were washed in cold PBS, lysed on ice for 10 min in lysis buffer (1% Triton X-100 containing 50 mM Tris–HCl (pH 7.5), 150 mM NaCl, 1 mM EGTA, 1 mM EDTA, 10 mM NaF, 1 mM sodium orthovanadate and 5 mM sodium pyrophosphate and protease inhibitors (Roche)) and centrifuged for 10 min at 20000 g at 4°C.

[3] = test system: p38; assay: Desthiobiotin-ATP probe capture on streptavidin beads, Western blot; assay type: binding, C57BL/6 mice; conditions: 10 μM inhibitor, DC lysate
Method: (§1) SDC were cultured for at least 14 days in RPMI (without arginine and lysine, custom-made by Biosera) containing 10% dialysed FCS (Hyclone) supplemented with 84 mg/l of L-arginine (Sigma) and 40 mg/l L-lysine (Sigma) for the 'light' medium or 84 mg/l of […] or ^13C10 and 40 mg/l […] (Cambridge Isotope Laboratory) for the 'heavy' medium. Equal numbers (2×10^7) of 'light' or 'heavy' labelled SDCs were incubated in RPMI containing 0.5% FCS for 3 h in 15 cm dishes. The cells were lysed in the lysis buffer provided in the kit (Pierce). […] Labelling with the desthiobiotin ATP probe, and precipitation with streptavidin beads were performed according to the manufacturer's instructions (Pierce kinase enrichment kit or ActivXTM).

[4] = target: T2, Erk1/2 (Mus musculus, UniProt P63085); assay: as above; assay type: binding, C57BL/6 mice; conditions: 10 μM inhibitor, DC lysate
T2 construct: recovered on streptavidin beads following desthiobiotin-ATP labelling of DC lysates including Rsk2, Erk1/2 and p38; endogenous in cells; host or cells: mouse spleen-derived dendritic cells (SDC), lysate
T2 sequence (P63085 2-358): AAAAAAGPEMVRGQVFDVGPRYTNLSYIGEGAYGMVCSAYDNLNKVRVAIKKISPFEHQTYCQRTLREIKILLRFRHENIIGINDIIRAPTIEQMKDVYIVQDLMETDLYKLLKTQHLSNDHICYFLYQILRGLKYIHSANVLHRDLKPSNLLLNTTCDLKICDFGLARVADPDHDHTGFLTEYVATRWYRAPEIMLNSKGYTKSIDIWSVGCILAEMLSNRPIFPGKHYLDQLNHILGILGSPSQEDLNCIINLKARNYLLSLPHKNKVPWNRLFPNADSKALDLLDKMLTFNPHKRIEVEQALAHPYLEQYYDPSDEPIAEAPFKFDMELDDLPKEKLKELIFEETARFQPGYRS
Method: as §1

T1 sequence (O94804 whole entry): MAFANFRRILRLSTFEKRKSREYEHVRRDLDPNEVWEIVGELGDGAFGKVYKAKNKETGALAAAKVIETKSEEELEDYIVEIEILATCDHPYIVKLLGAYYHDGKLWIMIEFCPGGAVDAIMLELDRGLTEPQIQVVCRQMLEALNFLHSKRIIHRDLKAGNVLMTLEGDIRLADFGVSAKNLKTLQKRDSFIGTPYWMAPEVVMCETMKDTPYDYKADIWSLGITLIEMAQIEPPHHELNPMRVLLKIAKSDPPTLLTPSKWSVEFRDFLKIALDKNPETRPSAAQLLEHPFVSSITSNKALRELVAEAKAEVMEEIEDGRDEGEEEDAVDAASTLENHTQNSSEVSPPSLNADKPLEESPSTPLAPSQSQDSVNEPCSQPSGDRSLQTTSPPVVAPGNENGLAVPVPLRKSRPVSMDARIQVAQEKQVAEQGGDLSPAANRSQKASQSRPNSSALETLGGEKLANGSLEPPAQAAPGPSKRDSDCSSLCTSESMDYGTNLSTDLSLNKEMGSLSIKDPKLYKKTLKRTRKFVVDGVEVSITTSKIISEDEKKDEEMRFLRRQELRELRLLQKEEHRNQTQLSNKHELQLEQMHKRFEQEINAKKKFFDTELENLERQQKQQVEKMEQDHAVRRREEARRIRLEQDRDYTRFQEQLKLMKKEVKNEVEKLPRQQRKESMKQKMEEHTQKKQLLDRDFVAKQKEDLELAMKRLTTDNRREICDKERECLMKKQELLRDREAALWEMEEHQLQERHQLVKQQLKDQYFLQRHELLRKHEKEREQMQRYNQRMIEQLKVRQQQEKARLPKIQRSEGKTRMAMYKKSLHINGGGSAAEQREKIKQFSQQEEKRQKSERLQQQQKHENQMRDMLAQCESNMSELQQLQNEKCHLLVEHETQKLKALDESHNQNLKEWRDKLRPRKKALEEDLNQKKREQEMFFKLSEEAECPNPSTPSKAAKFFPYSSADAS

SMILES: CC(C)CCN1c2nc(Nc3cc(F)c(O)c(F)c3)ncc2N(C)C(=O)C1C (stereo not shown) [D1870, BI-D1870]
- pIC50 [1]: 6.30
- PKB phosphorylation [2]: not affected
- capture of p38 on streptavidin beads [3]: not Erk1/2 or p38, was blocked
- capture of Erk1/2 on streptavidin beads [4]: not Erk1/2 or p38, was blocked
